US20230406883A1, “COMPOUNDS AND THEIR USE IN TREATMENT OF TACHYKININ RECEPTOR MEDIATED DISORDERS” (Embark Biotech ApS, priority 2020, published 2023)
Numbered stars: 1 amine (or outer) side, 2 acyl side, 3 side chain; on linkers, the order of the positions; unused ones are H or OH. Square brackets hold non-standard residues; d marks the D form. Peptide text beside a SMILES is read from it. * marks the point of attachment. C18 diacid = O=C(O)CCCCCCCCCCCCCCCCC(=O)*; γGlu = O=C(O)[C@H](CCC(=O)[*:2])N[*:1]; C14 diacid = O=C(O)CCCCCCCCCCCCC(=O)*; Conj‑Neu‑C18DA = not defined here; NMeL = CN[C@@H](CC(C)C)C(=O)O; hSer = N[C@@H](CCO)C(=O)O; Nle = CCCC[C@H](N)C(=O)O; AEEA = NCCOCCOCC(=O)O; βAla = NCCC(=O)O

Columns and labels:
Test in all cases: IP3 assay (inositol trisphosphate, 3H-myoinositol) in transiently transfected COS-7 cells
Assay type in all cases: cell-based
hNK3R = target: T1, hNK3R (Homo sapiens, UniProt P29371); details: for EC50 / hNK3, IP3 Efficacy: COS-7 cells; for EC50: 0.2% ovalbumin buffer, read-out: hNK3, IP3 EC50; for hNK3, IP3 Efficacy: figure legends: percent of 10^-6 M NKA
T1 construct: host or cells: COS-7
T1 sequence (P29371 1-465): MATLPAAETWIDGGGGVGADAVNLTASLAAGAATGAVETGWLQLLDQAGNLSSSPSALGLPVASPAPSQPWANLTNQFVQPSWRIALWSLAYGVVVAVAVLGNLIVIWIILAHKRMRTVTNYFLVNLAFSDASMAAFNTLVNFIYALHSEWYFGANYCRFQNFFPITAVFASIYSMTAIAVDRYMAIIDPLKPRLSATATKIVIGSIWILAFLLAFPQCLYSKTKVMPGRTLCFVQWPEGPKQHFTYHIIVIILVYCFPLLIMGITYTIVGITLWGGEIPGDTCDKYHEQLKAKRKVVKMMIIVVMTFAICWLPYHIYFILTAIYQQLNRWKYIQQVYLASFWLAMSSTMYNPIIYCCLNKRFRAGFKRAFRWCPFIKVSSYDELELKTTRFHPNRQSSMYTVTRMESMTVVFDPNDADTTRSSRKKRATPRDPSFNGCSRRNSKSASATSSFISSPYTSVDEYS
Procedure: (§1) Agonist-induced G-protein coupled receptor (GPCR) activation was measured by an Inositol-1,4,5-Trisphosphate [^3H] Radioreceptor Assay (IPs Assay). Assays were carried out using COS-7 cells transiently transfected by calcium phosphate transfection with a vector pcDNA3.1(+) encoding one of the indicated receptors (Genscript). Briefly, DNA mixed with CaCl2 (2 M) and TE-buffer (10 mM Tris-HCl, 1 mM EDTA, pH 7.5) was dropwise added to 2×HBS (50 mM HEPES, 280 mM NaCl, 1.5 mM NaH2PO4, pH 7.2) and incubated for 45 min at room temperature (22±2° C.). The mixture and a final concentration of 100 μM Chloroquine were added to the cells and left to incubate for 5 hours at 37° C. under standard cell culture conditions (10% CO2) before changing medium to fresh medium containing 5 μl/mL Myo-[2-^3H(N)]-inositol (labelling medium).
(§2) The IP3 assay takes advantage of the tachykinin receptors' ability to induce production of the inositol trisphosphate (IP3) second messenger upon agonist (ligand) binding on receptor expressing cells following an initial ^3H-inositol labelling period. In effect this means that production of the second messenger IP3 as a measure of receptor activity can be assessed by counting ^3H-activity.
(§3) Assay solutions used: Wash buffer (HBSS), Assay buffer (HBSS+10 mM LiCl and 0,2% w/v ovalbumin), Lysis buffer (10 mM formic acid), and SPA YSI beads (12.5 mg/ml in H2O). The assay was performed the day after transfection. Briefly, labelling medium was aspirated, and plates were washed ×1 in wash buffer before adding 100 μl assay buffer, pre-incubated for 30 min followed by 120 min incubation with agonist, both at 37° C. After incubation, plates were immediately placed on ice and the incubation medium was aspirated and 40 μl of 10 mM formic acid per well was added. Plates were incubated for at least 30 min on ice. 60 μl (1 mg/well) SPA YSI beads/well was pipetted into a solid white 96 wells plate and 35 μl of the lysis solution was transferred to the plate before covering plates with seal cover and shaking for 10 min. (max speed). Centrifuge plates and leave for 8 hours at room temperature before counting the plates in a MicroBeta plate counter (Perkin Elmer).

hNK2R = target: T2, hNK2R (Homo sapiens, UniProt P21452); details: for EC50 / hNK2R, IP3 Efficacy: COS-7 cells; for EC50: 0.2% ovalbumin buffer; for hNK2R, IP3 Efficacy: figure legends: percent of 10^-6 M NKA
T2 construct: host or cells: COS-7
T2 sequence (P21452 1-398): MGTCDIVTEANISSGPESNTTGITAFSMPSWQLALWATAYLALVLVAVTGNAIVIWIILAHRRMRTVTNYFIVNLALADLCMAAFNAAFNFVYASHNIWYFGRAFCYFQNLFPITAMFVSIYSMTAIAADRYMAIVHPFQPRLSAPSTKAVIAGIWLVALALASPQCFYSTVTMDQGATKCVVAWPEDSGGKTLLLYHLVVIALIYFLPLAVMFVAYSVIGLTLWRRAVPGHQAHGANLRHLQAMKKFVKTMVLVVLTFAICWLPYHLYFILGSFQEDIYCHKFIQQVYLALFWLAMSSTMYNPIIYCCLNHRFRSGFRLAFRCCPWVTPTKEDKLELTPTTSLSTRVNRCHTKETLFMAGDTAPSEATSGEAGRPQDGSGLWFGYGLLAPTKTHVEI
Procedure: as §1, §2, §3

hNK1R = target: T3, hNK1R (Homo sapiens, UniProt P25103); details: for hNK1R, IP3 Efficacy / EC50: COS-7 cells; for hNK1R, IP3 Efficacy: figure legends: percent of 10^-6 M NKA; for EC50: 0.2% ovalbumin buffer
T3 construct: host or cells: COS-7
Procedure: as §1, §2, §3

T3 sequence (P25103 whole entry): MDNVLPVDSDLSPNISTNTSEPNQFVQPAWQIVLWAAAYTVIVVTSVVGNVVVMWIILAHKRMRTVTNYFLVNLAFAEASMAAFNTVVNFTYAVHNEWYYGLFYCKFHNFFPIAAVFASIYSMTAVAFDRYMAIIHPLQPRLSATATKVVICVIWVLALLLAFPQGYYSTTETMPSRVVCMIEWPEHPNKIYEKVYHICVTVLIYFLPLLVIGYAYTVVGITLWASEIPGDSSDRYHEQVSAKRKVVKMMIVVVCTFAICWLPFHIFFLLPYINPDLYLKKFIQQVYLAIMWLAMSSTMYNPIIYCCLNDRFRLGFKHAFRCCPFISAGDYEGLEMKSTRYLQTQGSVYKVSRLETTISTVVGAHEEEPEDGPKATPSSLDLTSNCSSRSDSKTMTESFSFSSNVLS

Molecule | EC50 (hNK3R) [nM] | hNK3, IP3 Efficacy (hNK3R) [%] | EC50 (hNK2R) [nM] | hNK2R, IP3 Efficacy (hNK2R) [%] | hNK1R, IP3 Efficacy (hNK1R) [%] | EC50 (hNK1R) [nM] | hNK3R receptor activation, in words (hNK3R) | hNK2R receptor activation, in words (hNK2R) | hNK1R receptor activation, in words (hNK1R)
CCCC[C@H](NC(=O)[C@H](CC(C)C)NC(=O)CCNC(=O)[C@@H](NC(=O)[C@H](Cc1ccccc1)NC(=O)[C@H](CO)NC(=O)[C@H](CC(=O)O)NC(=O)[C@@H](NC(=O)[C@H](CCCCN)NC(=O)COCCOCCNC(=O)COCCOCCNC(=O)CC[C@H](NC(=O)CCCCCCCCCCCCCCCCC(=O)O)C(=O)O)[C@@H](C)O)C(C)C)C(N)=O [compound 322, *Lys;Thr;Asp;Ser;Phe;Val;bAla;Leu;Nle;NH2] ({C18 diacid-γGlu-AEEA-AEEA}-KTDSFV[βAla]L[Nle]-NH2) | ~160 | 80 | ~130 | 53 | 0 | – | – | – | –
COCC[C@H](NC(=O)[C@H](CC(C)C)N(C)C(=O)CNC(=O)[C@@H](NC(=O)[C@H](Cc1ccc(O)cc1)NC(=O)[C@H](CCCCN)NC(=O)[C@H](CCC(=O)O)NC(=O)COCCOCCNC(=O)COCCOCCNC(=O)CC[C@H](NC(=O)CCCCCCCCCCCCCCCCC(=O)O)C(=O)O)C(C)C)C(N)=O [compound 382, *Glu;Lys;Tyr;Val;Gly;NmLeu;Metox;NH2] ({C18 diacid-γGlu-AEEA-AEEA}-EKYVG[NMeL][hSer](Me)-NH2) | – | 20 | 3.7 | 95 | 30 | ~3800 | – | – | –
CCCC[C@H](NC(=O)[C@H](CC(C)C)N(C)C(=O)CNC(=O)[C@@H](NC(=O)[C@H](Cc1ccccc1)NC(=O)[C@H](CCCNC(=N)N)NC(=O)[C@H](CC(=O)O)NC(=O)COCCOCCNC(=O)COCCOCCNC(=O)CC[C@H](NC(=O)CCCCCCCCCCCCCCCCC(=O)O)C(=O)O)C(C)C)C(N)=O [compound 306, *Asp;Arg;Phe;Val;Gly;NmLeu;Nle;NH2] ({C18 diacid-γGlu-AEEA-AEEA}-DRFVG[NMeL][Nle]-NH2) | 36 | 65 | 2 | 90 | 80 | 19 | – | – | –
CCCC[C@H](NC(=O)[C@H](CC(C)C)N(C)C(=O)CNC(=O)[C@@H](NC(=O)[C@H](Cc1ccc(O)cc1)NC(=O)[C@H](CCCNC(=N)N)NC(=O)[C@H](CCC(=O)O)NC(=O)COCCOCCNC(=O)COCCOCCNC(=O)CC[C@H](NC(=O)CCCCCCCCCCCCCCCCC(=O)O)C(=O)O)C(C)C)C(N)=O [compound 357, *Glu;Arg;Tyr;Val;Gly;NmLeu;Nle;NH2] ({C18 diacid-γGlu-AEEA-AEEA}-ERYVG[NMeL][Nle]-NH2) | – | 10 | 6.5 | 90 | 50 | – | – | – | –
CCCC[C@H](NC(=O)[C@H](CC(C)C)N(C)C(=O)CNC(=O)[C@@H](NC(=O)[C@H](Cc1ccccc1)NC(=O)[C@H](CCCCN)NC(=O)[C@H](CC(=O)O)NC(=O)COCCOCCNC(=O)COCCOCCNC(=O)CC[C@H](NC(=O)CCCCCCCCCCCCCCCCC(=O)O)C(=O)O)[C@@H](C)O)C(N)=O [compound 387, *Asp;Lys;Phe;Thr;Gly;NmLeu;Nle;NH2] ({C18 diacid-γGlu-AEEA-AEEA}-DKFTG[NMeL][Nle]-NH2) | 34 | 100 | 3.3 | 100 | 100 | 5.5 | – | – | –
*Asp;Lys;Val;Tyr;Gly;NmLeu;Nle;NH2 ({Conj‑Neu‑C18DA}-DKVYG[NMeL][Nle]-NH2; reading uncertain; also: printed as *Asp;Lys;Val;Tyr;Gly;NmLeu;Nle;NH2) [compound 363, * is Conj-Neu-C18DA protractor on N-terminal α-amino group] | – | 0 | – | 0 | 0 | – | complete loss of receptor activation on NK1-3Rs | complete loss of receptor activation on NK1-3Rs | complete loss of receptor activation on NK1-3Rs
COCC[C@H](NC(=O)[C@H](CC(C)C)N(C)C(=O)CNC(=O)[C@@H](NC(=O)[C@H](Cc1ccc(O)cc1)NC(=O)[C@H](CCCCN)NC(=O)[C@H](CCC(=O)O)NC(=O)COCCOCCNC(=O)COCCOCCNC(=O)CC[C@H](NC(=O)CCCCCCCCCCCCCCCCC(=O)O)C(=O)O)[C@@H](C)O)C(N)=O [compound 381, *Glu;Lys;Tyr;Thr;Gly;NmLeu;Metox;NH2] ({C18 diacid-γGlu-AEEA-AEEA}-EKYTG[NMeL][hSer](Me)-NH2) | – | 0 | 9.3 | 85 | 0 | – | – | – | –
CCCC[C@H](NC(=O)[C@H](CC(C)C)N(C)C(=O)CNC(=O)[C@@H](NC(=O)[C@H](Cc1ccc(O)cc1)NC(=O)[C@H](CCCCN)NC(=O)[C@H](CC(=O)O)NC(=O)COCCOCCNC(=O)COCCOCCNC(=O)CC[C@H](NC(=O)CCCCCCCCCCCCC(=O)O)C(=O)O)C(C)C)C(N)=O [compound 368, *Asp;Lys;Tyr;Val;Gly;NmLeu;Nle;NH2] ({C14 diacid-γGlu-AEEA-AEEA}-DKYVG[NMeL][Nle]-NH2) | – | 0 | 19 | 70 | 0 | – | – | – | –
CCCC[C@H](NC(=O)[C@H](CC(C)C)NC(=O)CNC(=O)[C@@H](NC(=O)[C@H](Cc1ccccc1)NC(=O)[C@H](CO)NC(=O)[C@H](CC(=O)O)NC(=O)[C@@H](NC(=O)[C@H](CCCCN)NC(=O)COCCOCCNC(=O)COCCOCCNC(=O)CC[C@H](NC(=O)CCCCCCCCCCCCCCCCC(=O)O)C(=O)O)[C@@H](C)O)C(C)C)C(N)=O [compound 308, *Lys;Thr;Asp;Ser;Phe;Val;Gly;Leu;Nle;NH2] | 1000 | 93 | 96 | 65 | 60 | ~164 | – | – | –
*Asp;Lys;dPhe;Val;Gly;NmLeu;Nle;NH2 (DKFVGLL; N-terminal Conj-Neu-C18DA protractor; C-terminal amide; (1)..(1) Conj-Neu-C18; MOD_RES (3)..(3) D-Phe; MOD_RES (6)..(6) N-methyl-Leucine; MOD_RES (7)..(7) AMIDATION; MOD_RES (7)..(7) Nle) [compound 356, * is Conj-Neu-C18DA protractor on N-terminal α-amino group] | – | 0 | – | 0 | 0 | – | – | completely destroys NK2R activation | –
CSCC[C@H](NC(=O)[C@H](CC(C)C)N(C)C(=O)CNC(=O)[C@@H](NC(=O)[C@H](Cc1ccccc1)NC(=O)[C@H](CCCCNC(=O)COCCOCCNC(=O)COCCOCCNC(=O)CC[C@H](NC(=O)CCCCCCCCCCCCCCCCC(=O)O)C(=O)O)NC(=O)[C@H](CC(=O)O)NC(=O)COCCOCCNC(=O)COCCOCCNC(=O)CC[C@H](NC(=O)CCCCCCCCCCCCCCCCC(=O)O)C(=O)O)C(C)C)C(N)=O [compound 302, *Asp;Lys*;Phe;Val;Gly;NmLeu;Met;NH2] | – | – | – | – | – | – | – | inactivates the NKA(4-10) analogue | –
